Test results published in the NIST ThermoML archive (doi:10.1016/j.jct.2007.03.011).
“And” between values parts separate entries of the source, which are not always exact repeats. Equal entries are not always repeated.

Details: Liquid, Transpiration method

N#CCCO [3-hydroxypropanenitrile]
Details | vapor or sublimation pressure
306.3 K | 0.01564 kPa
311.3 K | 0.02299 kPa
314.3 K | 0.02755 kPa
317.3 K | 0.03639 kPa
318.6 K | 0.03759 kPa
321.4 K | 0.04504 kPa
321.7 K | 0.04955 kPa
323.3 K | 0.05382 kPa
325.4 K | 0.06297 kPa
326.3 K | 0.06361 kPa
328.6 K | 0.07507 kPa
331.4 K | 0.08563 kPa and 0.09147 kPa
333.4 K | 0.1054 kPa
336.3 K | 0.1286 kPa
336.4 K | 0.1232 kPa
338.5 K | 0.1442 kPa
340.4 K | 0.1598 kPa
341.5 K | 0.1816 kPa
343.4 K | 0.2025 kPa
346.6 K | 0.2592 kPa
351.7 K | 0.3404 kPa
356.8 K | 0.4425 kPa
361.8 K | 0.5765 kPa
